# In patent US20180200257A1, “METHODS FOR THE TREATMENT OF INFLAMMATORY DISORDERS” (Galapagos NV, priority 2015, published 2018):
# Tested on: subjects with moderately to severely active RA who have an inadequate response to methotrexate (MTX)
# Assay: Study 1 (add-on to MTX) - Alanine Aminotransferase (ALT) levels
# Format: in vivo, human
# Experimental: Double-blind, placebo-controlled add on study in subjects with moderately to severely active RA who have an inadequate response to methotrexate (MTX) (oral or parenteral).
# 595 subjects randomized to one of 6 dose regimens of Compound 1 (dosed as [Compound 1:HCl:3H2O]) (3 dose levels administered either once or twice daily) or placebo on top of each subject's stable dose of MTX.
# Compound 1 (dosed as [Compound 1:HCl:3H2O]) is dosed for twelve weeks once daily (q.d.) (50 mg, 100 mg or 200 mg) or twice daily (b.i.d.) (25 mg, 50 mg or 100 mg); or placebo.
# At Week 12, the subjects on placebo who have not achieved 20% improvement in swollen joint count (SJC66) and tender joint count (TJC68) are re-randomized automatically to receive Compound 1 (dosed as a [Compound 1:HCl:3H2O]) either at 100 mg q.d. or 50 mg b.i.d. doses in a blinded fashion; subjects on 50 mg q.d. who have not achieved 20% improvement in SJC66 and TJC68 will be assigned to 100 mg q.d. and subjects on 25 mg b.i.d. that have not achieved a 20% improvement in SJC66 and TJC68 will be assigned to 50 mg b.i.d. Subjects who switch treatment at week 12 are handled as if they discontinued at week 12 for the purpose of statistical analysis, whereas subjects in the other groups will maintain their randomized treatment until Week 24.
# ALT levels determination is available at Quest Diagnostics, Clinical Trials, Quest House, 125-135 Staines Road, Hounslow, Middlesex, TW3 3JB, United Kingdom under Catalogue n#84460.
# ALT catalyzes the exchange of the amino group of alanine with the oxogroup of 2-ketoglutarate to form pyruvate and glutamate. In the presence of lactic dehydrogenase, pyruvate reacts with NADH to form NAD+, measured spectrophotometrically. Guidelines for the ALT value have been issued by the association for Clinical Biochemistry and Laboratory Medicine, 130-132 Tooley Street LONDON SE1 2TU, united Kingdom, wherein the ALT value should be below 34 U/l in Female and below 52 U/L in male.
# [1] = 12 weeks results, 50 mg q.d., week 1
# [2] = 12 weeks results, 50 mg q.d., week 2
# [3] = 12 weeks results, 50 mg q.d., week 4
# [4] = 12 weeks results, 50 mg q.d., week 8
# [5] = 12 weeks results, 50 mg q.d., week 12
# [6] = 12 weeks results, 100 mg q.d., week 1
# [7] = 12 weeks results, 100 mg q.d., week 2
# [8] = 12 weeks results, 100 mg q.d., week 4
# [9] = 12 weeks results, 100 mg q.d., week 8
# [10] = 12 weeks results, 100 mg q.d., week 12
# [11] = 12 weeks results, 200 mg q.d., week 1
# [12] = 12 weeks results, 200 mg q.d., week 2
# [13] = 12 weeks results, 200 mg q.d., week 4
# [14] = 12 weeks results, 200 mg q.d., week 8
# [15] = 12 weeks results, 200 mg q.d., week 12
# [16] = 12 weeks results, 2 × 25 mg b.i.d., week 1
# [17] = 12 weeks results, 2 × 25 mg b.i.d., week 2
# [18] = 12 weeks results, 2 × 25 mg b.i.d., week 4
# [19] = 12 weeks results, 2 × 25 mg b.i.d., week 8
# [20] = 12 weeks results, 2 × 25 mg b.i.d., week 12
# [21] = 12 weeks results, 2 × 50 mg b.i.d., week 1
# [22] = 12 weeks results, 2 × 50 mg b.i.d., week 2
# [23] = 12 weeks results, 2 × 50 mg b.i.d., week 4
# [24] = 12 weeks results, 2 × 50 mg b.i.d., week 8
# [25] = 12 weeks results, 2 × 50 mg b.i.d., week 12
# [26] = 12 weeks results, 2 × 100 mg b.i.d., week 1
# [27] = 12 weeks results, 2 × 100 mg b.i.d., week 2
# [28] = 12 weeks results, 2 × 100 mg b.i.d., week 4
# [29] = 12 weeks results, 2 × 100 mg b.i.d., week 8
# [30] = 12 weeks results, 2 × 100 mg b.i.d., week 12
# [31] = 24 weeks results, continued 25 mg b.i.d., week 1
# [32] = 24 weeks results, continued 25 mg b.i.d., week 2
# [33] = 24 weeks results, continued 25 mg b.i.d., week 4
# [34] = 24 weeks results, continued 25 mg b.i.d., week 8
# [35] = 24 weeks results, continued 25 mg b.i.d., week 12
# [36] = 24 weeks results, continued 25 mg b.i.d., week 16
# [37] = 24 weeks results, continued 25 mg b.i.d., week 20
# [38] = 24 weeks results, continued 25 mg b.i.d., week 24
# [39] = 24 weeks results, continued 50 mg b.i.d., week 1
# [40] = 24 weeks results, continued 50 mg b.i.d., week 2
# [41] = 24 weeks results, continued 50 mg b.i.d., week 4
# [42] = 24 weeks results, continued 50 mg b.i.d., week 8
# [43] = 24 weeks results, continued 50 mg b.i.d., week 12
# [44] = 24 weeks results, continued 50 mg b.i.d., week 16
# [45] = 24 weeks results, continued 50 mg b.i.d., week 20
# [46] = 24 weeks results, continued 50 mg b.i.d., week 24
# [47] = 24 weeks results, continued 50 mg q.d., week 1
# [48] = 24 weeks results, continued 50 mg q.d., week 2
# [49] = 24 weeks results, continued 50 mg q.d., week 4
# [50] = 24 weeks results, continued 50 mg q.d., week 8
smiles,measurement,setting,value
"O=C(Nc1nc2cccc(-c3ccc(CN4CCS(=O)(=O)CC4)cc3)n2n1)C1CC1 [Compound 1, cyclopropanecarboxylic acid {5-[4-(1,1-dioxo-thiomorpholin-4-ylmethyl)-phenyl]-[1,2,4]triazolo[1,5-a]pyridin-2-yl}-amide]",Study 1 - ALT Mean CFB,[1],1 IU/L
same,Study 1 - ALT Mean percentage CFB,[1],5%
same,Study 1 - ALT Mean CFB,[2],−1 IU/L
same,Study 1 - ALT Mean percentage CFB,[2],0%
same,Study 1 - ALT Mean CFB,[3],−1 IU/L
same,Study 1 - ALT Mean percentage CFB,[3],4%
same,Study 1 - ALT Mean CFB,[4],0 IU/L
same,Study 1 - ALT Mean percentage CFB,[4],9%
same,Study 1 - ALT Mean CFB,[5],0 IU/L
same,Study 1 - ALT Mean percentage CFB,[5],12%
same,Study 1 - ALT Mean CFB,[6],3 IU/L
same,Study 1 - ALT Mean percentage CFB,[6],14%
same,Study 1 - ALT Mean CFB,[7],1 IU/L
same,Study 1 - ALT Mean percentage CFB,[7],9%
same,Study 1 - ALT Mean CFB,[8],1 IU/L
same,Study 1 - ALT Mean percentage CFB,[8],9%
same,Study 1 - ALT Mean CFB,[9],2 IU/L
same,Study 1 - ALT Mean percentage CFB,[9],15%
same,Study 1 - ALT Mean CFB,[10],2 IU/L
same,Study 1 - ALT Mean percentage CFB,[10],16%
same,Study 1 - ALT Mean CFB,[11],2 IU/L
same,Study 1 - ALT Mean percentage CFB,[11],11%
same,Study 1 - ALT Mean CFB,[12],1 IU/L
same,Study 1 - ALT Mean percentage CFB,[12],16%
same,Study 1 - ALT Mean CFB,[13],1 IU/L
same,Study 1 - ALT Mean percentage CFB,[13],15%
same,Study 1 - ALT Mean CFB,[14],4 IU/L
same,Study 1 - ALT Mean percentage CFB,[14],31%
same,Study 1 - ALT Mean CFB,[15],3 IU/L
same,Study 1 - ALT Mean percentage CFB,[15],34%
same,Study 1 - ALT Mean CFB,[16],−1 IU/L
same,Study 1 - ALT Mean percentage CFB,[16],4%
same,Study 1 - ALT Mean CFB,[17],−2 IU/L
same,Study 1 - ALT Mean percentage CFB,[17],2%
same,Study 1 - ALT Mean CFB,[18],−1 IU/L
same,Study 1 - ALT Mean percentage CFB,[18],9%
same,Study 1 - ALT Mean CFB,[19],0 IU/L
same,Study 1 - ALT Mean percentage CFB,[19],11%
same,Study 1 - ALT Mean CFB,[20],1 IU/L
same,Study 1 - ALT Mean percentage CFB,[20],21%
same,Study 1 - ALT Mean CFB,[21],1 IU/L
same,Study 1 - ALT Mean percentage CFB,[21],8%
same,Study 1 - ALT Mean CFB,[22],1 IU/L
same,Study 1 - ALT Mean percentage CFB,[22],13%
same,Study 1 - ALT Mean CFB,[23],3 IU/L
same,Study 1 - ALT Mean percentage CFB,[23],24%
same,Study 1 - ALT Mean CFB,[24],2 IU/L
same,Study 1 - ALT Mean percentage CFB,[24],20%
same,Study 1 - ALT Mean CFB,[25],2 IU/L
same,Study 1 - ALT Mean percentage CFB,[25],28%
same,Study 1 - ALT Mean CFB,[26],1 IU/L
same,Study 1 - ALT Mean percentage CFB,[26],9%
same,Study 1 - ALT Mean CFB,[27],1 IU/L
same,Study 1 - ALT Mean percentage CFB,[27],10%
same,Study 1 - ALT Mean CFB,[28],1 IU/L
same,Study 1 - ALT Mean percentage CFB,[28],20%
same,Study 1 - ALT Mean CFB,[29],1 IU/L
same,Study 1 - ALT Mean percentage CFB,[29],25%
same,Study 1 - ALT Mean CFB,[30],2 IU/L
same,Study 1 - ALT Mean percentage CFB,[30],26%
same,Study 1 - ALT Mean CFB,[31],0.8 IU/L
same,Study 1 - ALT Mean percentage CFB,[31],8.9%
same,Study 1 - ALT Mean CFB,[32],−0.4 IU/L
same,Study 1 - ALT Mean percentage CFB,[32],5.4%
same,Study 1 - ALT Mean CFB,[33],0.3 IU/L
same,Study 1 - ALT Mean percentage CFB,[33],10.9%
same,Study 1 - ALT Mean CFB,[34],1.8 IU/L
same,Study 1 - ALT Mean percentage CFB,[34],18.4%
same,Study 1 - ALT Mean CFB,[35],2.5 IU/L
same,Study 1 - ALT Mean percentage CFB,[35],28.6%
same,Study 1 - ALT Mean CFB,[36],1.2 IU/L
same,Study 1 - ALT Mean percentage CFB,[36],21.4%
same,Study 1 - ALT Mean CFB,[37],0.0 IU/L
same,Study 1 - ALT Mean percentage CFB,[37],15.2%
same,Study 1 - ALT Mean CFB,[38],1.4 IU/L
same,Study 1 - ALT Mean percentage CFB,[38],25.1%
same,Study 1 - ALT Mean CFB,[39],0.6 IU/L
same,Study 1 - ALT Mean percentage CFB,[39],8.5%
same,Study 1 - ALT Mean CFB,[40],1.2 IU/L
same,Study 1 - ALT Mean percentage CFB,[40],13.0%
same,Study 1 - ALT Mean CFB,[41],2.5 IU/L
same,Study 1 - ALT Mean percentage CFB,[41],24.2%
same,Study 1 - ALT Mean CFB,[42],2.2 IU/L
same,Study 1 - ALT Mean percentage CFB,[42],20.3%
same,Study 1 - ALT Mean CFB,[43],2.1 IU/L
same,Study 1 - ALT Mean percentage CFB,[43],27.6%
same,Study 1 - ALT Mean CFB,[44],1.6 IU/L
same,Study 1 - ALT Mean percentage CFB,[44],20.1%
same,Study 1 - ALT Mean CFB,[45],3.0 IU/L
same,Study 1 - ALT Mean percentage CFB,[45],26.2%
same,Study 1 - ALT Mean CFB,[46],1.8 IU/L
same,Study 1 - ALT Mean percentage CFB,[46],18.7%
same,Study 1 - ALT Mean CFB,[47],0.9 IU/L
same,Study 1 - ALT Mean percentage CFB,[47],6.6%
same,Study 1 - ALT Mean CFB,[48],−0.7 IU/L
same,Study 1 - ALT Mean percentage CFB,[48],1.4%
same,Study 1 - ALT Mean CFB,[49],−0.6 IU/L
same,Study 1 - ALT Mean percentage CFB,[49],4.8%
same,Study 1 - ALT Mean CFB,[50],0.4 IU/L
same,Study 1 - ALT Mean percentage CFB,[50],10.6%
